What was measured:
Type in all cases: in vivo, rat
[1] = system: insulin resistant rats on a high fat diet; assay: Dopamine infusion into the SCN of high fat fed SHR rats, GTT; details: male SHR rats on high fat diet
Description: Male SHR rats at approximately 12 weeks of age were fed a high fat diet for one month and were then treated with either dopamine or vehicle for a three minute period at the offset of light (14 hour daily photoperiod) via a cannula directed to the SCN daily for 2 weeks while maintained on the high fat diet. At the end of the treatment period, animals were subjected to a glucose tolerance test (GTT) (3 g/kg of glucose) and plasma samples were taken before and at 30, 60, 90, and 120 minutes after glucose treatment. Plasma samples were analyzed for glucose and insulin levels.

[2] = system: insulin resistant high fat fed rats; assay: NMDA agonist directed to the SuMN in high fat fed rats, GTT; details: female Sprague Dawley HFD-sensitive rats, cannula to SuMN daily for 2 weeks at offset of light, relative to vehicle, FIG. 6
Description: Treatment of insulin resistant high fat fed rats with an NMDA agonist directed to the SuMN improved insulin resistance and glucose intolerance. Female Sprague Dawley rats were fed a high fat diet for one month and those animals most sensitive to the diet (those gaining the most weight in the group) were then treated with either an NMDA agonist or vehicle for a three minute period at the offset of light (14 hour daily photoperiod) via a cannula directed to the SuMN daily for 2 weeks while maintained on the high fat diet. At the end of the treatment period, animals were subjected to a glucose tolerance test (GTT) (3 g/kg of glucose) and plasma samples were taken before and at 30, 60, 90, and 120 minutes after glucose treatment. Plasma samples were analyzed for glucose and insulin levels.

[3] = system: dopamine neurons in SuMN; assay: Microdialysis of dopamine metabolites at SCN after intra-SuMN AMPA infusion; details: compared to vehicle
Description: Female Sprague-Dawley rats (12) were housed in a room at constant temperature and humidity with a 14/10 light/dark cycle were fed regular diet ad libitum. Each rat was microinjected with retrograde tracer fluorogold (4%, 20 nl) to SCN and allowed to rest for 10 days. The rats were then perfused with 4% paraformaldehyde and the brains were dissected for immunohistochemistry. Dopamine neurons projecting to SCN were identified with double immunochemistry of fluorogold (FG) and tyrosine hydroxylase (TH). To verify functional connection, dopamine metabolites at SCN were measured by microdialysis in freely moving rats following infusion of AMPA (0.3 mM/0.5 µl) to SuMN.

[4] = system: high fat diet-resistant rats (HF-R); assay: Chronic intra-SuMN AMPA treatment of high fat diet-resistant rats
Description: (§1) In separate protocols, female Sprague-Dawley high fat diet-resistant rats (HF-R) (16 animals) were fed high fat diets for 4 months or female Sprague-Dawley high fat diet-sensitive rats (HF-S) (16 animals) were fed high fat diets for 3 months. Following initial feeding protocols, AMPA (0.03 mM/0.5 µl) or vehicle was microinjected into SuMN daily for 13 (HF-R animals) or 14 d (HF-S) at the onset of locomotor activity. At the end of AMPA treatment, HF-R animals were sacrificed by decapitation. Trunk blood was collected for glucose and insulin analysis retroperitoneal fat mass were weighed. At the end of AMPA treatment, HF-S animals were subjected to glucose tolerance tests (GTT) and two days after GTT, were sacrificed. Trunk blood was collected for glucose and insulin analysis and retroperitoneal fat mass were weighed. Body weight and food consumption were measured daily throughout both protocols.

[5] = system: high fat diet-sensitive rats (HF-S); assay: Chronic intra-SuMN AMPA treatment of high fat diet-sensitive rats, GTT
Description: as §1

[6] = cannula to SCN daily for 2 weeks at offset of light, relative to vehicle, FIG. 7
[7] = AMPA into SuMN daily for 13 d, versus vehicle, p<0.01

NCCc1ccc(O)c(O)c1 [dopamine]
insulin resistance [1, 6]: improved
glucose intolerance ([1]; infusion directly into the SCN daily for 2 weeks): improved

CN[C@H](CC(=O)O)C(=O)O [NMDA]
insulin resistance [2]: significantly improved
plasma glucose levels during the GTT [2]: significantly reduced
plasma insulin levels during the GTT [2]: significantly reduced
insulin resistance [1, 6]: significantly improved
plasma glucose levels during the GTT [1, 6]: significantly reduced
plasma insulin levels during the GTT [1, 6]: significantly reduced

Cc1o[nH]c(=O)c1CC(N)C(=O)O (stereo not shown) [AMPA]
dopamine metabolite HVA at SCN area ([3]; intra-SuMN AMPA infusion 0.3 mM/0.5 µl, freely moving rats, p<0.05, FIG. 1A): significant elevations
dopamine metabolite DOPAC at SCN area ([3]; intra-SuMN AMPA infusion 0.3 mM/0.5 µl, freely moving rats, p<0.05, FIG. 1B): significant elevations
serotonin metabolite 5-HIAA at the SCN ([3]; intra-SuMN AMPA infusion, FIG. 1C): did produce a significant elevation
body weight ([4]; AMPA 0.03 mM/0.5 µl into SuMN daily for 13 d at onset of locomotor activity, versus vehicle, p<0.05): significantly reduced
retroperitoneal fat ([4]; AMPA into SuMN daily for 13 d, vehicle 13.4 g): 9.02 g
daily food consumption ([4]; AMPA into SuMN daily for 13 d, vehicle 17.7 g, p<0.05): 13.7 g
total abdominal fat ([4]; AMPA into SuMN daily for 13 d, vehicle 19.1 g): 12.9 g
reduction of retroperitoneal fat [4, 7]: 33%
reduction of total abdominal fat [4, 7]: 32%
plasma glucose concentration during the GTT ([5]; AMPA 0.03 mM/0.5 µl into SuMN daily for 14 d, compared to vehicle): significantly reduced
total area under the glucose GTT curve ([5]; AMPA into SuMN daily for 14 d): decreased
basal plasma insulin level ([5]; AMPA into SuMN daily for 14 d, decreased from 2.2, P<0.05): 1.15 ng/mL
basal plasma glucose level ([5]; AMPA into SuMN daily for 14 d, decreased from 114, P<0.05): 106 mg/dL
Insulin resistant index (HOMA-IR) ([5]; AMPA into SuMN daily for 14 d, reduced from 13.0±1.79, p=0.018): 6.3±1.70

Source: patent publication US20220142960A1, “Compositions and Methods for Treating Metabolic Disorders” (VeroScience LLC, priority 2013, published 2022)
